In PubChem BioAssay (NCI):
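Cells were grown in 96-well plates and exposed to each compound for 48 hours at five concentrations; endpoints were interpolated linearly between bracketing concentrations, or set to the highest concentration if not reached. GI50 is the concentration that inhibits growth by half. TGI is the concentration that stops growth completely.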

Columns and labels:
Experiment in all cases: growth of human tumour cells (NCI), 48 h
ACHN renal = system: ACHN renal
SF-268 CNS = system: SF-268 CNS
KM12 colon = system: KM12 colon
SR leukemia = system: SR leukemia
A549 NSCLC = system: A549 NSCLC
786-0 renal = system: 786-0 renal
A498 renal = system: A498 renal
LOX IMVI melanoma = system: LOX IMVI melanoma
DU-145 prostate = system: DU-145 prostate
BT-549 breast = system: BT-549 breast

Row | SMILES | GI50 (ACHN renal) [µM] | TGI (ACHN renal) [µM] | GI50 (SF-268 CNS) [µM] | TGI (SF-268 CNS) [µM] | GI50 (KM12 colon) [µM] | TGI (KM12 colon) [µM] | GI50 (SR leukemia) [µM] | TGI (SR leukemia) [µM] | GI50 (A549 NSCLC) [µM] | TGI (A549 NSCLC) [µM] | GI50 (786-0 renal) [µM] | TGI (786-0 renal) [µM] | TGI (A498 renal) [µM] | TGI (LOX IMVI melanoma) [µM] | GI50 (A498 renal) [µM] | GI50 (DU-145 prostate) [µM] | TGI (DU-145 prostate) [µM] | GI50 (LOX IMVI melanoma) [µM] | GI50 (BT-549 breast) [µM] | TGI (BT-549 breast) [µM]
1 | CC(C)([NH-])CO.CC(C)([NH-])CO.[Cl][Cd][Cl] | > 100 | > 100 | 18.4 | 35.3 | 36.5 | > 100 | 20 | 44.5 | 30.2 | > 100 | 16.6 | 31.3 | – | – | – | – | – | – | – | –
2 | C[C@]12CC/C(=N\O)C=C1CC[C@@H]1C2CC[C@@]2(C)C1CC[C@@H]2OC1CCCCO1 (stereo partly drawn) | – | 30.3 | – | 55.2 | – | 33.2 | – | – | – | 53 | – | 33.3 | > 100 | 37.4 | – | – | – | – | – | –
3 | Cc1ccc(S(=O)(=O)NC2(C=O)CCCC3CCCCC32)cc1 (stereo not drawn) | – | > 100 | – | > 100 | – | > 100 | – | > 100 | – | > 100 | – | > 100 | > 100 | – | – | – | – | – | – | –
4 | COc1ccc(/C(Cl)=C(\C=N/O)c2ccc(OC)c(OC)c2)cc1OC | – | > 100 | – | > 100 | – | > 100 | – | > 100 | – | > 100 | – | > 100 | > 100 | > 100 | – | – | – | – | – | –
5 | CCOC(=O)c1cc2c(cc1Cl)SC(N(c1ccc(OC)cc1)S(=O)(=O)c1ccc(Cl)cc1)=NS2(=O)=O | 35 | > 100 | 23.5 | 67.6 | 46.7 | > 100 | 24.8 | 98.6 | 33.4 | > 100 | 62.2 | > 100 | > 100 | 38.3 | 80.8 | 24 | 79.9 | 18.7 | – | –
6 | NCCCCCCCn1c2c(c3ccccc3c1=O)C(=O)c1ccccc1-2 | 1.6 | 3.47 | 2.1 | 6.34 | 1.68 | 3.82 | – | – | 3.27 | 18.3 | 1.38 | 2.75 | 11.8 | 2.76 | 3.26 | 0.915 | 2.12 | 1.33 | 1.7 | 3.14
7 | Cc1ccc(/C(O)=C/C(=O)C(=O)NC23CC4CC(CC(C4)C2)C3)cc1 | – | – | – | > 10 | – | > 10 | – | > 10 | – | > 10 | – | > 10 | – | > 10 | – | – | > 10 | – | – | –
8 | CC12CCC3(OCCO3)C(OC(=O)c3ccccc3)=C1CCC21OCCO1 (stereo not drawn) | – | > 100 | – | > 100 | – | > 100 | – | > 100 | – | > 100 | – | > 100 | > 100 | > 100 | – | – | – | – | – | –
9 | Cc1cccc(C(C)(C)C)c1NC(=O)CC1C(=O)Nc2ccccc2S1(=O)=O (stereo not drawn) | – | 22.7 | – | 25.5 | – | – | – | 7.13 | – | 27.9 | – | 21.5 | 28.4 | 18.6 | – | – | – | – | – | –
10 | COc1ccc(-c2cc(=O)c3cc(OC)ccc3[nH]2)cc1 | – | > 100 | – | > 100 | – | > 100 | – | > 100 | – | > 100 | – | > 100 | – | > 100 | – | – | – | – | – | –
11 | COc1cc(N(C)C)c(OC)cc1/C=C\c1ccnc2ccccc12 | – | > 10 | – | > 10 | – | > 10 | – | – | – | > 10 | – | > 10 | 9.92 | > 10 | – | – | > 10 | – | – | > 10
12 | CC(=O)OC(C)(C)/C(C)=C/C(=O)O[C@H]1C(=O)O[C@@H]2C[C@H]3[C@H](C)C(=O)C(O[C@@H]4O[C@H](CO)[C@@H](O)[C@H](O)[C@H]4O)=C[C@]3(C)[C@H]3[C@@H](O)[C@H](O)[C@@]4(C(=O)O)OC[C@]32[C@@H]14 | > 100 | > 100 | > 100 | > 100 | > 100 | > 100 | 48.5 | > 100 | > 100 | > 100 | > 100 | > 100 | > 100 | > 100 | > 100 | > 100 | > 100 | – | – | –
13 | CN1C(=O)C2C3C=C4c5ccccc5N(c5ccccc5)C4(C2C1=O)[C@H]1C(=O)N(C)C(=O)[C@@H]31 (stereo partly drawn) | – | > 100 | – | > 100 | – | > 100 | – | > 100 | – | > 100 | – | > 100 | > 100 | > 100 | – | – | – | – | – | –
14 | C/C(=N\NS(=O)(=O)c1ccc(C)cc1)P(=O)(O)O | – | > 100 | – | > 100 | – | > 100 | – | – | – | > 100 | – | > 100 | > 100 | > 100 | – | – | > 100 | – | – | > 100
15 | [N-]=[N+]=NC(c1cn(C2CC(O)C(CO)O2)c(=O)[nH]c1=O)C(Cl)I (stereo not drawn) | – | > 100 | – | > 100 | – | > 100 | – | – | – | > 100 | – | > 100 | > 100 | – | – | – | > 100 | – | – | > 100
16 | CCC[CH2][Sn]1([CH2]CCC)[O]CC(CN(C)Cc2ccccc2)[O]1 (stereo not drawn) | 11.2 | 23.3 | 5.89 | 17.7 | 13.9 | 26.8 | 4.31 | 23.7 | 19.6 | 38.6 | 4.41 | 16.4 | 29.4 | 16.2 | 15.1 | – | – | 4.12 | – | –

Row | SMILES | GI50 (ACHN renal) [µM] | TGI (ACHN renal) [µM] | GI50 (SF-268 CNS) [µM] | TGI (SF-268 CNS) [µM] | GI50 (KM12 colon) [µM] | TGI (KM12 colon) [µM] | GI50 (SR leukemia) [µM] | TGI (SR leukemia) [µM] | GI50 (A549 NSCLC) [µM] | TGI (A549 NSCLC) [µM] | GI50 (786-0 renal) [µM] | TGI (786-0 renal) [µM] | TGI (A498 renal) [µM] | TGI (LOX IMVI melanoma) [µM] | GI50 (A498 renal) [µM] | GI50 (DU-145 prostate) [µM] | TGI (DU-145 prostate) [µM] | GI50 (LOX IMVI melanoma) [µM] | GI50 (BT-549 breast) [µM] | TGI (BT-549 breast) [µM]
17 | COc1ccccc1-c1cc(=O)c2cc3c(cc2[nH]1)OCO3 | – | > 100 | 64.5 | > 100 | – | – | – | > 100 | – | > 100 | – | > 100 | 62.4 | > 100 | – | – | – | – | – | –
18 | CO/N=C(\C)c1ccc(Nc2cc(-c3ccccc3)nc3ccc(OC)cc23)cc1 | 3.27 | 12.5 | 10.2 | 28.8 | – | – | – | – | 4.28 | 70.2 | 2.17 | 4.5 | – | – | – | 5.36 | 21.3 | – | 5.61 | 21.4
19 | CC(=O)C1C(c2ccc(N(C)C)cc2)c2cc3c(cc2OC1(C)O)OCO3 (stereo not drawn) | – | > 100 | – | – | – | – | – | – | – | > 100 | – | > 100 | – | > 100 | – | – | – | – | – | –
20 | O=[P+](O)c1ccsc1 | – | > 100 | – | > 100 | – | – | – | – | – | > 100 | – | > 100 | > 100 | > 100 | – | – | – | – | – | –
21 | COC(=O)c1cccn1C(=O)n1cccc1 | – | > 100 | – | > 100 | – | > 100 | – | > 100 | – | > 100 | – | > 100 | > 100 | > 100 | – | – | – | – | – | –
22 | Cc1cccc(C)c1NC(=O)C1C(=O)N(c2c(C)cccc2C)C(=O)/C1=N\N (stereo not drawn) | – | > 100 | – | > 100 | – | – | – | > 100 | – | > 100 | – | > 100 | > 100 | > 100 | – | – | – | – | – | –
23 | O=C(CCN1CCN(c2ccccc2)CC1)N1CCc2c([nH]c3ccccc23)C1c1cccnc1 (stereo not drawn) | – | 40 | – | – | – | 36.7 | – | 59 | – | 29.7 | – | 29.5 | 37.7 | 30.6 | – | – | – | – | – | –
24 | CC(Nc1ccc(S(=O)(=O)N=C(N)N)cc1)c1c2ccccc2nc2ccccc12 (stereo not drawn) | – | > 100 | – | > 100 | – | > 100 | – | 65.7 | – | > 100 | – | > 100 | – | > 100 | – | – | – | – | – | –
25 | O=C(c1ccccc1)C1OC1c1ccc([N+](=O)[O-])cc1 (stereo not drawn) | 6.08 | > 100 | 8.73 | > 100 | 3.83 | 17.7 | – | – | 24.9 | > 100 | 17.7 | 70.7 | 53.1 | 10.8 | 18.8 | – | – | 1.81 | 5.47 | 44.3
26 | CSc1nc(NC2OC(COC(C)=O)C(OC(C)=O)C(OC(C)=O)C2OC(C)=O)c2c(n1)OCC2=O (stereo not drawn) | – | > 100 | – | > 100 | – | > 100 | – | > 100 | – | > 100 | – | > 100 | > 100 | > 100 | – | – | – | – | – | –
27 | NC(=O)/N=C1/CCC2C3CCCC2C13 | – | > 100 | – | > 100 | – | > 100 | – | > 100 | – | > 100 | – | > 100 | – | > 100 | – | – | – | – | – | –
28 | Cc1ccc(NC(=O)CC2Sc3ccccc3NC2=O)c(C)c1 (stereo not drawn) | – | 41 | – | 60.7 | – | 20.1 | – | – | – | 39.7 | – | 26.5 | 30.1 | > 100 | – | – | – | – | – | –
29 | O=C(O)CCC(N=Cc1nc(-c2ccccc2)oc1O)C(=O)O (stereo not drawn) | – | > 100 | – | > 100 | – | > 100 | – | > 100 | – | > 100 | – | > 100 | > 100 | – | – | – | – | – | – | –
30 | CCOC(=O)C1c2[nH]c3ccccc3c2CCN1C(=O)c1ccc(OC)o1 (stereo not drawn) | – | > 10 | – | > 10 | – | > 10 | – | > 10 | – | – | – | > 10 | > 10 | > 10 | – | – | > 10 | – | – | –
31 | COC(=O)C(C(=O)C(=O)Nc1ccc([N+](=O)[O-])cc1[N+](=O)[O-])c1nc2ccc(Cl)cc2[nH]c1=O (stereo not drawn) | – | > 100 | – | > 100 | – | > 100 | – | – | – | > 100 | – | > 100 | > 100 | > 100 | – | – | – | – | – | –
32 | CCOC(=O)N1CCC(=O)C(CNC23CC4CC(CC(C4)C2)C3)C1 (stereo not drawn) | – | 34.8 | – | > 100 | – | > 100 | – | 51.6 | – | > 100 | – | 29.4 | > 100 | 41.5 | – | – | – | – | – | –
